Holding throughout (assay type): cell-based
Test [1] has as its target T1, human GPR119 (Homo sapiens, UniProt Q8TDV5).
T1 sequence (Q8TDV5 1-335): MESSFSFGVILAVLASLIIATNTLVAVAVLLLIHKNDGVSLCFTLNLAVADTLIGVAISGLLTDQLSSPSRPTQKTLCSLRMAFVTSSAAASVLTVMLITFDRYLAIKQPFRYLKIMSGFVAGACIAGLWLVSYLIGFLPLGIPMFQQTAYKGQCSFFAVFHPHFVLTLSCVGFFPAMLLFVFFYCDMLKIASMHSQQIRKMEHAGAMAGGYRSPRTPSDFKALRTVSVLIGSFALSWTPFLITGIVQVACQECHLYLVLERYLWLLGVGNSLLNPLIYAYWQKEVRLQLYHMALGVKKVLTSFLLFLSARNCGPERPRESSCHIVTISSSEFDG
Description: cAMP HTRF functional assay (hGPR119 HEK-CRE beta-lactamase cells). Set-up: host or cells: HEK293-CRE beta-lactamase. The note with it: for EC50: HTRF cAMP, 30 min, 400 microM IBMX, each line a separate determination; for Emax: read-out: Intrinsic Activity (Human cAMP). As for the experimental part:
GPR119 agonist activity was also determined with a cell-based assay utilizing an HTRF (Homogeneous Time-Resolved Fluorescence) cAMP detection kit (cAMP dynamic 2 Assay Kit; Cis Bio cat #62AM4PEC) that measures cAMP levels in the cell. The method is a competitive immunoassay between native cAMP produced by the cells and the cAMP labeled with the dye d2. The tracer binding is visualized by a Mab anti-cAMP labeled with Cryptate. The specific signal (i.e. energy transfer) is inversely proportional to the concentration of cAMP in either standard or sample.
Specifically, hGPR119 HEK-CRE beta-lactamase cells (Invitrogen 2.5×10^7/mL; the same cell line used in the beta-lactamase assay described above) are removed from cryopreservation and diluted in growth medium (Dulbecco's modified Eagle medium high glucose (DMEM; Gibco Cat # 11995-065), 1% charcoal dextran treated fetal bovine serum (CD serum; HyClone Cat # SH30068.03), 1×MEM Nonessential amino acids (Gibco Cat # 15630-080) and 25 mM HEPES pH 7.0 (Gibco Cat # 15630-080)). The cell concentration was adjusted to 1.5×10^5 cells/mL and 30 mLs of this suspension was added to a T-175 flask and incubated at 37 degrees Celsius in a humidified environment in 5% carbon dioxide. After 16 hours (overnight), the cells were removed from the T-175 flask (by rapping the side of the flask), centrifuged at 800×g and then re-suspended in assay medium (1×HBSS+CaCl2+MgCl2 (Gibco Cat # 14025-092) and 25 mM HEPES pH 7.0 (Gibco Cat # 15630-080)). The cell concentration was adjusted to 6.25×10^5 cells/mL with assay medium and 8 μl of this cell suspension (5000 cells) was added to each well of a white Greiner 384-well, low-volume assay plate (VWR cat #82051-458).
Varying concentrations of each compound to be tested were diluted in assay buffer containing 3-isobutyl-1-methylxanthin (IBMX; Sigma cat #15879) and added to the assay plate wells in a volume of 2 microL (final IBMX concentration was 400 microM and final DMSO concentration was 0.58%). Following 30 minutes incubation at room temperature, 5 microL of labeled d2 cAMP and 5 microL of anti-cAMP antibody (both diluted 1:20 in cell lysis buffer; as described in the manufacturers assay protocol) were added to each well of the assay plate. The plates were then incubated at room temperature and after 60 minutes, changes in the HTRF signal were read with an Envision 2104 multilabel plate reader using excitation of 330 nm and emissions of 615 and 665 nm. Raw data were converted to nM cAMP by interpolation from a cAMP standard curve (as described in the manufacturer's assay protocol) and EC50 determinations were made from an agonist-response curves analyzed with a curve fitting program using a 4-parameter logistic dose response equation.
(In general: In TR-FRET formats the signal depends on donor and acceptor labels being close together.)

The target in test [2] is T1, human GPR119. Description: β-Arrestin PathHunter assay (U2OS hGPR119 β-arrestin cells). As for the experimental part:
GPR119 agonist activity was also determined with a cell-based assay utilizing DiscoverX PathHunter β-arrestin cell assay technology and their U2OS hGPR119 β-arrestin cell line (DiscoverX Cat # 93-0356C3). In this assay, agonist activation is determined by measuring agonist-induced interaction of β-arrestin with activated GPR119. A small, 42 amino acid enzyme fragment, called ProLink was appended to the C-terminus of GPR119. Arrestin was fused to the larger enzyme fragment, termed EA (Enzyme Acceptor). Activation of GPR119 stimulates binding of arrestin and forces the complementation of the two enzyme fragments, resulting in formation of a functional β-galactosidase enzyme capable of hydrolyzing substrate and generating a chemiluminescent signal.
Specifically, U2OS hGPR119 β-arrestin cells (DiscoverX 1×10^7/mL) are removed from cryopreservation and diluted in growth medium (Minimum essential medium (MEM; Gibco Cat # 11095-080), 10% heat inactivated fetal bovine serum (HIFBS; Sigma Cat # F4135-100), […] sodium pyruvate (Sigma Cat # S8636), 500 microg/mL G418 (Sigma Cat # G8168) and 250 microg/mL Hygromycin B (Invitrogen Cat # 10687-010). The cell concentration was adjusted to 1.66×10^5 cells/mL and 30 mLs of this suspension was added to a T-175 flask and incubated at 37 degrees Celsius in a humidified environment in 5% carbon dioxide. After 24 hours, the cells were removed from the T-175 flask with enzyme-free cell dissociation buffer (Gibco cat #13151-014), centrifuged at 800×g and then re-suspended in plating medium (Opti-MEM I (Invitrogen/BRL Cat # 31985-070) and 2% charcoal dextran treated fetal bovine serum (CD serum; HyClone Cat # SH30068.03).
The cell concentration was adjusted to 2.5×10^5 cells/mL with plating medium and 20 microliters of this cell suspension (5000 cells) was added to each well of a white Greiner 384-well low volume assay plate (VWR cat #82051-458) and the plates were incubated at 37 degrees Celsius in a humidified environment in 5% carbon dioxide.
After 16 hours (overnight) the assay plates were removed from the incubator and varying concentrations of each compound to be tested (diluted in assay buffer (1×HBSS+CaCl2+MgCl2 (Gibco Cat # 14025-092), 20 mM HEPES pH 7.0 (Gibco Cat # 15630-080) and 0.1% BSA (Sigma Cat # A9576)) were added to the assay plate wells in a volume of 5 microliters (final DMSO concentration was 0.5%). After a 90 minute incubation at 37 degrees Celsius in a humidified environment in 5% carbon dioxide, 12 microliters of Galacton Star β-galactosidase substrate (PathHunter Detection Kit (DiscoveRx Cat # 93-0001); prepared as described in the manufacturers assay protocol) was added to each well of the assay plate. The plates were incubated at room temperature and after 60 minutes, changes in the luminescence were read with an Envision 2104 multilabel plate reader at 0.1 seconds per well. EC50 determinations were made from an agonist-response curves analyzed with a curve fitting program using a 4-parameter logistic dose response equation.

In test [3] the target is T1, human GPR119. The experiment in a line: β-Lactamase reporter functional assay (hGPR119 HEK293-CRE beta-lactamase cells). Set-up: host or cells: HEK293-CRE beta-lactamase; Emax: dose or concentration left out as unconfirmed. The note with it: for EC50: hGPR119 HEK293-CRE beta-lactamase cells, 16 h incubation, each line a separate determination, read-out: Human B-lactamase Functional EC50; for Intrinsic Activity (Human B-lactamase) / Emax: percent of maximal activity relative to standard GPR119 agonist at 10 micromolar; for Emax: read-out: Intrinsic Activity (Human B-lactamase). As for the experimental part: The assay for GPR119 agonists utilizes a cell-based (hGPR119 HEK293-CRE beta-lactamase) reporter construct where agonist activation of human GPR119 is coupled to beta-lactamase production via a cyclic AMP response element (CRE). GPR119 activity is then measured utilizing a FRET-enabled beta-lactamase substrate, CCF4-AM (Live Blazer FRET-B/G Loading kit, Invitrogen cat #K1027). Specifically, hGPR119-HEK-CRE-beta-lactamase cells (Invitrogen 2.5×10^7/mL) were removed from liquid nitrogen storage, and diluted in plating medium (Dulbecco's modified Eagle medium high glucose (DMEM; Gibco Cat # 11995-065), 10% heat inactivated fetal bovine serum (HIFBS; Sigma Cat # F4135), 1×MEM Nonessential amino acids (Gibco Cat # 15630-080), 25 mM HEPES pH 7.0 (Gibco Cat # 15630-080), 200 nM potassium clavulanate (Sigma Cat # P3494). The cell concentration was adjusted using cell plating medium and 50 microL of this cell suspension ([…]) was added into each well of a black, clear bottom, poly-d-lysine coated 384-well plate (Greiner Bio-One cat# 781946) and incubated at 37 degrees Celsius in a humidified environment containing 5% carbon dioxide. After 4 hours the plating medium was removed and replaced with 40 microL of assay medium (Assay medium is plating medium without potassium clavulanate and HIFBS). Varying concentrations of each compound to be tested was then added in a volume of 10 microL (final DMSO ≦0.5%) and the cells were incubated for 16 hours at 37 degrees Celsius in a humidified environment containing 5% carbon dioxide. Plates were removed from the incubator and allowed to equilibrate to room temperature for approximately 15 minutes. 10 microL of 6×CCF4/AM working dye solution (prepared according to instructions in the Live Blazer FRET-B/G Loading kit, Invitrogen cat #K1027) was added per well and incubated at room temperature for 2 hours in the dark. Fluorescence was measured on an EnVision fluorimetric plate reader, excitation 405 nm, emission 460 nm/535 nm. EC50 determinations were made from agonist-response curves analyzed with a curve fitting program using a 4-parameter logistic dose-response equation.

Setting [4] is: percent of maximal activity relative to standard GPR119 agonist at 10 micromolar.

Molecules are shown by their SMILES. “And” between values parts separate entries of the source, which are not always exact repeats. Equal entries are not always repeated.

The EC50 is the concentration giving half of the maximal effect.

With `Cc1c(O[C@H]2CCN(C(=O)OC3(C)CC3)C[C@H]2F)ncnc1N1CCc2ncccc21` (racemic) [Example 19, 1-Methylcyclopropyl (3R,4S)-4-{[6-(2,3-dihydro-1H-pyrrolo[3,2-b]pyridin-1-yl)-5-methylpyrimidin-4-yl]oxy}-3-fluoropiperidine-1-carboxylate (racemic)], the EC50 at human GPR119 [1] was found to be 19.4 nM; on human GPR119 [2] (U2OS hGPR119 β-arrestin cells, 90 min, each line a separate determination, read-out: Human B-arrestin Functional EC50), 6.31 nM. Moreover, the Emax came to 57.9% at human GPR119 [1] (setting [4]) and 74% at human GPR119 [2] (U2OS, percent of maximal activity relative to standard GPR119 agonist at 10 micromolar, read-out: Intrinsic Activity (Human B-arrestin)).

Turning to `CC(C)OC(=O)N1C[C@H]2COC[C@@H](C1)[C@@H]2Oc1cc(N2CCc3cc(S(C)(=O)=O)ccc32)ncn1` [Example 2, Isopropyl 9-syn-({6-[5-(methylsulfonyl)-2,3-dihydro-1H-indol-1-yl]pyrimidin-4-yl}oxy)-3-oxa-7-azabicyclo[3.3.1]nonane-7-carboxylate], on human GPR119 [3], the EC50 is 343 nM and 51.3 nM and 38.2 nM; the “Intrinsic Activity (Human B-lactamase)” value is given as 106%; the Emax came to 98%.

Regarding `CC1(OC(=O)N2CC[C@H](Oc3cc(N4CCc5nc(C(N)=O)ccc54)ncn3)[C@H](F)C2)CC1` (racemic) [Example 32, 1-Methylcyclopropyl (3R,4S)-4-{[6-(5-carbamoyl-2,3-dihydro-1H-pyrrolo[3,2-b]pyridin-1-yl)pyrimidin-4-yl]oxy}-3-fluoropiperidine-1-carboxylate], the midpoint of the response at human GPR119 [1], the EC50, lay at 273 nM. In addition, the Emax on human GPR119 [1] (setting [4]) is 147%.

Take `CN(C)C(=O)c1ccc2c(n1)CCN2c1cc(OC2CCN(C(=O)OC3(C)CC3)CC2)ncn1` [Example 33, 1-Methylcyclopropyl 4-({6-[5-(dimethylcarbamoyl)-2,3-dihydro-1H-pyrrolo[3,2-b]pyridin-1-yl]pyrimidin-4-yl}oxy)piperidine-1-carboxylate]: the EC50 on human GPR119 [1] was 1550 nM. For the same compound, the Emax at human GPR119 [1] (setting [4]) is 154%.

As for `CC(C)OC(=O)N1C[C@H]2COC[C@@H](C1)[C@@H]2Oc1ncnc(N2CCc3cc(S(C)(=O)=O)ccc32)c1C#N` [Example 4], on human GPR119 [3], the EC50 stood at 9.16 nM and the Emax stood at 87.9%. Moreover, at human GPR119 [1] (setting [4]), the “Intrinsic Activity (Human cAMP)” value is 36% and 35.3%; the Emax was 36.2%.

As to `CC(C)OC(=O)N1C[C@H]2COC[C@@H](C1)[C@H]2Oc1ncnc(N2CCc3cc(S(C)(=O)=O)ccc32)c1C#N` [Example 5], on human GPR119 [3], the EC50 was 11.5 nM and 12.5 nM; the “Intrinsic Activity (Human B-lactamase)” value is 100%; the Emax came out at 98.1%. Further, on human GPR119 [1], the EC50 was 357 nM and 602 nM and 1750 nM and 1330 nM and 1800 nM and 3140 nM.

For `CC(C)OC(=O)N1CCC(Oc2cc(N3CCc4cc(S(C)(=O)=O)cnc43)ncn2)CC1` [Example 14, Isopropyl 4-({6-[5-(methylsulfonyl)-2,3-dihydro-1H-pyrrolo[2,3-b]pyridin-1-yl]pyrimidin-4-yl}oxy)piperidine-1-carboxylate], the figures for the 50% effective concentration (EC50) at human GPR119 [3] and on human GPR119 [1] were 7270 nM and more than 10000 nM, respectively. In addition, on human GPR119 [3], the Emax was 98.1%.

With `Cc1c(O[C@H]2[C@@H]3COC[C@H]2CN(C(=O)OC(C)C)C3)ncnc1N1CCc2cc(S(C)(=O)=O)ccc21` [Example 24, Isopropyl (9-anti)-9-({5-methyl-6-[5-(methylsulfonyl)-2,3-d hydro-1H-indol-1-yl]pyrimidin-4-yl}oxy)-3-oxa-7-azabicyclo[3.3.1]nonane-7-carboxylate], on human GPR119 [3], the EC50 was 111 nM and the Emax amounted to 100%.

These data come from US20100285145A1, “GPR 119 MODULATORS” (PFIZER INC, priority 2009, published 2010).
